# Legend:
# [1] = system: Histone deacetylase (HDAC); test: HDAC inhibitory activity: Kac-tubulin Western Blot in VCaP cells; assay type: cell-based; settings: 10 uM drug, 24 h, FIG. 4
# Description: (§1) The VCap cells are cultured in the 6-well plate. After treating the VCap cells with the drugs for 24 hours, acetylation levels of the tubulin in the cytoplasm and the H3 protein in the nucleus are examined by the western blot. An experiment process is as follows:
# The VCaP cells are spread in the 6-well plate. 5×10^5 cells are inoculated per well, and incubated overnight to make the cells stick to a wall. On the second day, 10 uM of the drug is added per well. After being incubated for 24 h, the cells are collected, and lysed to extract the cell total protein. The Western Blot method is used to detect the expression levels of Kac-tubilin (localized cytoplasm) in the cells after treating with the different drugs.
# [2] = system: Histone deacetylase (HDAC); test: HDAC inhibitory activity: Kac-H3 Western Blot in VCaP cells; assay type: cell-based; settings: 10 uM drug, 24 h, FIG. 5
# Description: as §1
# The VCaP cells are spread in the 6-well plate. 5×10^5 cells are inoculated per well, and incubated overnight to make the cells stick to a wall. Then 10 uM of the drug is added to each well. The cells are collected after being incubated for 24 h. The EpiQuik Total Histone Extraction kit (Epigentek, USA) is used to extract the histones, and the Western Blot method is used to detect expression levels of Kac-H3 (localized cell nucleus) in the cells after adding the different drugs.
# VCaP cells = test: Inhibiting effect on VCaP cell proliferation (MTS); assay type: cell-based; settings: 4 days treatment, FIG. 6
# Description: Androgen-sensitive prostate cancer cell (VCaP cells) are cultured in a 96-well plate. The VCaP cells are able to proliferate in a medium supplemented with 10 nM of the DHT. After treating the cells with the drugs for 4 days, we measure the effects of the drugs on the proliferation of the prostate cancer cells.
# The VCaP cells are cultured by using 5% CSS and 1640 medium without phenol red, and inoculated in the 96-well plate. 1×10^4 cells are added to each well, and incubated overnight to make the cells stick to a wall. Different concentrations of the drugs are added on the second day. After treating the cells with the drugs for 4 days, cell viability is measured by the MTS kit (Promega, USA). To each well, 10% of an MTS reagent is added, and incubation continued for 2 hours. The absorbance value at […] is then measured by the multi-functional microplate reader. The Graphpad Prism software is used to draw a curve by using the drug concentration as an abscissa and using the absorbance value of the drug treatment/the absorbance value of the blank treatment cell as an ordinate.
# [3] = system: AR protein in MDA-MB-453 TNBC cells; test: AR protein Western blot in MDA-MB-453 cells; assay type: cell-based; settings: 48 h, FIG. 8
# Description: MDA-MB-453 cells treated with Zeta55 or Tubastatin A at indicated concentrations for 48 h were harvested and lysed in ice-cold RIPA buffer with protease inhibitor Cocktail. After quantification by BCA, protein (30-50 μg) were separated with 10% SDS-PAGE gels and transferred onto polyvinylidene difluoride (PVDF) membranes. The following antibodies were used in this study: AR(CST,1:1000),α-tubulin(CST,1:1000), Ac-α-tubulin(CST,1:1000). Secondary antibodies: HRP-conjugated anti-mouse IgG and anti-rabbit IgG (Proteintech, 1:5000).
# MDA-MB-453 TNBC cells = test: Cell proliferation of MDA-MB-453 (CCK8 cell viability); assay type: cell-based; settings: 72 h
# Description: 8000 MDA-MB-453 cells were plated in each well of a 96-well plate and incubated for 48 hours. Then cells were treated with increasing concentrations of Zeta55, MDV3100 or SAHA for 72 h, At last, cell viability was measured using a CCK8 Assay kit.
# AR-positive VCaP cells = test: Selective effects of the drug to cells (MTS; VCaP versus 293T and DU145); assay type: cell-based; settings: 4 days treatment, FIG. 10
# Description: (§2) 293T cells are AR-negative human embryonic kidney cells, DU145 cells are AR-negative prostate cancer cells, and VCaP cells are AR-positive prostate cancer cells. These three types of the cells are cultured in the 96-well plates and treated with the drugs (in the concentration gradient) respectively for 4 days. Then the inhibition of the drugs on cell proliferation are measure by MTS. Detailed process is as follows:
# (§3) The VCaP cells are cultured with 5% CSS and 1640 medium without phenol red, and inoculated in the 96-well plates, and 1×10^4 cells are added to each well. The 293T cells and the DU145 cells are cultured with 10% FBS and 1640 medium, and inoculated in the 96-well plates, and 2×10^3 cells are added to each well. The cells are incubated overnight to make the cells stick to a wall. Then the different concentrations of the drugs are added on the second day. After treatment with the drugs for 4 days, cell viability is measured by the MTS kit (Promega, USA). To each well, 10% of an MTS reagent is added, and incubation continued for 2 hours. The absorbance value at […] is then measured by the multi-functional microplate reader. The Graphpad Prism software is used to draw a curve by using the drug concentration as an abscissa and using the absorbance value of the drug treatment/the absorbance value of the blank treatment cell as an ordinate.
# [4] = system: AR-negative cells (293T and DU145); test: Selective effects of the drug to cells (MTS), AR-negative cells; assay type: cell-based, human; settings: 293T and DU145, 4 days treatment, FIG. 10
# Description: as §2, §3
compound,measurement,setting,value
"N#Cc1ccc(N2C(=O)C3(CCC3)N(c3ccc(C(=O)NO)c(F)c3)C2=S)cc1C(F)(F)F [Zeta 55, 4-(7-(4-cyano-3-(trifluoromethyl)phenyl)-8-oxo-6-thio-5,7-diazaspiro[3.4]octane-5-yl)-2-fluoro-N-hydroxybenzamide]",acetylation of the tubulin in the cytoplasm (HDAC inhibitory activity),[1],superior
same,H3 acetylation in the nucleus (HDAC inhibitory activity),[2],superior
same,"inhibitory effect on the VCap cell proliferation, from high to low",VCaP cells,Zeta55>Zeta32>Zeta33>Zeta34>Zeta57
same,cell proliferation inhibitory effect compared with positive control drug MDV3100,VCaP cells; VCaP cells,better than that of the positive control drug MDV3100
same,reduction of AR protein,[3],significant dose-dependent reduction of AR protein
same,potency relative to MDV3100,"MDA-MB-453 TNBC cells; CCK8, FIG. 9",about 1.5 times
same,IC50,"MDA-MB-453 TNBC cells; Homo sapiens, CCK8, FIG. 9, read-out: IC50 of dose-dependent killing of the cells",11.1 µM
same,proliferation inhibition effect on AR-positive VCaP cells relative to AR-negative cells (293T and DU145),AR-positive VCaP cells,more than 20 times
same,selectivity of proliferation inhibition,AR-positive VCaP cells,selective proliferation inhibition on the AR-positive VCaP cells
same,cytotoxicity toward AR-negative cells,[4],may have low cytotoxicity toward AR-negative cells

# Source: US12122760B2, “Compound, composition, and use thereof in preparation of drug” (CHANGSHA ZEDA MEDICAL TECH. CO., LTD, priority 2019, dated 2024)
